Assays:
Assay type in all cases: in vivo
Helicoverpa armigera = assay: Mortality test for Helicoverpa armigera (cabbage leaf dip); conditions: foliar, 144 h, drug solution 100 ppm, 2 instar larva, after 6 days, 25° C., 12 replications
Experimental: A 10% emulsifiable concentrate of the compound of the present invention (depending on the type of the compound, a 10% wettable powder was subjected to the test) was diluted with water containing a spreader to prepare a drug solution in a concentration of 100 ppm. In this drug solution, a leaf of cabbage was immersed for about 10 seconds and was air-dried and then put into a petri dish. In the petri dish, one 2 instar larva of Helicoverpa armigera per petri dish was released and the petri dish was capped and stored in a thermostatic room of 25° C. The number of killed larvae after 6 days was counted and the mortality was calculated from the same calculation formula as that in Test Example 1. Here, the test was carried out in 12 replications.

Plutella xylostella = assay: Mortality test for Plutella xylostella (cabbage leaf dip); conditions: foliar, 144 h, drug solution 100 ppm (mark *), 2 instar larvae, after 6 days, 25° C.
Experimental: A 10% emulsifiable concentrate of the compound of the present invention (depending on the type of the compound, a 10% wettable powder was subjected to the test) was diluted with water containing a spreader to prepare a drug solution in a concentration of […]. In this drug solution, a leaf of cabbage was immersed for about 10 seconds and was air-dried and then put into a petri dish. In the petri dish, five 2 instar larvae of Plutella xylostella per petri dish were released and the petri dish was capped and stored in a thermostatic room of 25° C. The number of killed larvae after 6 days was counted and the mortality was calculated from the following calculation formula: Mortality (%)=(number of killed insects/number of released insects)×100. Here, the test was carried out in two replications.

[1] = test system: Frankliniella occidentalis; assay: Mortality test for Frankliniella occidentalis (kidney bean leaf spray); conditions: 48 h, drug solution 500 ppm, sprayed 2.5 mL per cup, 1 instar larvae, after 2 days, 25° C.
Experimental: (§1) In a styrol cup having an inner diameter of 7 cm, a wet filtration paper was laid, and on the paper, a leaf of kidney bean cut out so as to have the same diameter as the inner diameter of the cup was laid, followed by inoculating the leaf with ten 1 instar larvae of Frankliniella occidentalis per leaf. A 10% emulsifiable concentrate of the compound of the present invention (depending on the type of the compound, a 10% wettable powder was subjected to the test) was diluted with water containing a spreader to prepare a drug solution in a concentration of 500 ppm. The drug solution was sprayed using a rotary spray tower in an amount of 2.5 mL per styrol cup and the cup was capped and stored in a thermostatic room of 25° C. The number of killed larvae after 2 days was counted and the mortality was calculated from the same calculation formula as that in Test Example 1. Here, the test was carried out in two replications.

Bemisia argentifolii = assay: Mortality test for Bemisia argentifolii (tomato leaf spray); conditions: 144 h, drug solution 500 ppm, sprayed 2.5 mL per cup, eggs on tomato leaf, killed larvae after 6 days, 25° C.
Experimental: In a styrol cup having an inner diameter of 7 cm, a wet filtration paper was laid, and on the paper, a cut-out leaf of tomato on which Bemisia argentifolii laid eggs (10 eggs/leaf) was laid. A 10% emulsifiable concentrate of the compound of the present invention (depending on the type of the compound, a 10% wettable powder was subjected to the test) was diluted with water containing a spreader to prepare a drug solution in a concentration of 500 ppm. The drug solution was sprayed using a rotary spray tower in an amount of 2.5 mL per styrol cup and the cup was capped and stored in a thermostatic room of 25° C. The number of killed larvae after 6 days was counted and the mortality was calculated from the same calculation formula as that in Test Example 1. Here, the test was carried out in two replications.

Planococcus kraunhiae = assay: Mortality test for Planococcus kraunhiae (kidney bean leaf spray); conditions: 144 h, drug solution 500 ppm, sprayed 2.5 mL per cup, 1 instar larvae, after 6 days, 25° C.
Experimental: as §1, with “of Planococcus kraunhiae” for “of Frankliniella occidentalis”, “after 6” for “after 2”

Aulacophora femoralis = assay: Mortality test for Aulacophora femoralis (cucumber leaf dip); conditions: foliar, 144 h, drug solution 500 ppm, 2 instar larvae, after 6 days, 25° C.
Experimental: A 10% emulsifiable concentrate of the compound of the present invention (depending on the type of the compound, a 10% wettable powder was subjected to the test) was diluted with water containing a spreader to prepare a drug solution in a concentration of 500 ppm. In this drug solution, a leaf of cucumber was immersed for about 10 seconds and was air-dried and then put into a petri dish. In the petri dish, five 2 instar larvae of Aulacophora femoralis per petri dish were released and the petri dish was capped and stored in a thermostatic room of 25° C. The number of killed larvae after 6 days was counted and the mortality was calculated from the same calculation formula as that in Test Example 1. Here, the test was carried out in two replications.

Liriomyza trifolii = assay: Mortality test for Liriomyza trifolii (kidney bean leaf dip); conditions: foliar, 144 h, drug solution 500 ppm, eggs on kidney bean leaf, killed larvae after 6 days, 25° C.
Experimental: A 10% emulsifiable concentrate of the compound of the present invention (depending on the type of the compound, a 10% wettable powder was subjected to the test) was diluted with water containing a spreader to prepare a drug solution in a concentration of 500 ppm. In this drug solution, a leaf of kidney bean which was cut out to a diameter of 7 cm, on which Liriomyza trifolii laid eggs (10 eggs/leaf) was immersed for about 10 seconds and was air-dried and then laid on a wet filtration paper laid in a styrol cup having an inner diameter of 7 cm. The styrol cup was capped and stored in a thermostatic room of 25° C. The number of killed larvae after 6 days was counted and the mortality was calculated from the same calculation formula as that in Test Example 1. Here, the test was carried out in two replications.

Tetranychus urticae = assay: Mortality test for Tetranychus urticae (kidney bean leaf spray); conditions: 144 h, drug solution 500 ppm, sprayed 2.5 mL per cup, larvae, after 6 days, 25° C.
Experimental: as §1, with “ten” for “ten 1 instar”, “of Tetranychus urticae” for “of Frankliniella occidentalis”, “after 6” for “after 2”

O=C(NCc1ccc(C2=NCC(c3cc(Cl)cc(Cl)c3)(C(F)(F)F)C2)cc1Br)C1CC1 (centres unmarked) [No. 1-001, 2-bromo-N-cyclopropylcarbonyl-4-[4-(3,5-dichlorophenyl)-4-trifluoromethyl-4,5-dihydro-3H-pyrrole-2-yl] benzylamine]
≥ 80%: mortality at 100 ppm (Helicoverpa armigera)

FC(F)(F)C1(c2cc(Cl)cc(Cl)c2)CN=C(c2ccc(-n3cncn3)cc2)C1 (centres unmarked) [No. 3-001, 4-(3,5-dichlorophenyl)-2-[4-(1,2,4-triazole-1-yl)phenyl]-4-trifluoromethyl-4,5-dihydro-3H-pyrrole]
≥ 80%: mortality at 100 ppm (Plutella xylostella) | mortality at 500 ppm [1] | mortality at 500 ppm (Bemisia argentifolii) | mortality at 500 ppm (Planococcus kraunhiae) | mortality at 500 ppm (Aulacophora femoralis) | mortality at 500 ppm (Liriomyza trifolii) | mortality at 500 ppm (Tetranychus urticae)
